The results in this text go back to patent publication US9732060B2, “Aminotriazine derivative and pharmaceutical composition comprising the same” (Shionogi & Co., Ltd., priority 2013, dated 2017).

In one series the target is Rat P2X3 receptor (Rattus norvegicus (Rat), UniProt P49654). Kind of series: Evaluation of rat P2X3 receptor inhibitory activity in the presence of rat serum albumin (RSA). In kind it is cell-based. The settings on record: read-out: ratP2X3 + RSA IC50. How it is done:
Rat P2X3 receptor gene (GenBank accession number NM_031075) was expressed in C6BU-1 cell. The C6BU-1 cells were seeded in a 96-well micro titer plate at a concentration of 2500 cells/well and cultured in the medium (7.0% fetal bovine serum, 7.0% horse serum, and 1% antibiotic and antifungal in DMEM) for one day at 37° C. under 5% carbon dioxide atmosphere. The plasmid was transfected into the cells using transfection reagent FuGENE6 (Promega). The transfected cells were cultured in the medium for one day at 37° C. under 5% carbon dioxide atmosphere. The medium was replaced with 4 μM Fluo-4-AM solution (pH 7.5) containing 20 mM HEPES, 137 mM NaCl, 5.27 mM KCl, 0.9 mM MgCl2, 1.26 mM CaCl2, 5.6 mM D-glucose, 2.5 mM probenecid, 10% RSA, and 0.08% Pluronic F-127, and incubated at 37° C. under 5% dioxide carbon atmosphere for one hour. The plate was washed with washing buffer (20 mM HEPES, 137 mM NaCl, 5.27 mM KCl, 0.9 mM MgCl2, 1.26 mM CaCl2, 5.6 mM D-glucose, 2.5 mM probenecid, pH 7.5), and each well was added with 40 μL of this buffer. The plate was placed in High-Throughput Screening System FDSS 3000 (Hamamatsu Photonics K.K.). Measurement of fluorescence intensity by FDSS 3000 was started, and 40 μL of DMSO solutions containing 1% RSA (final concentrations) and different concentrations of the test compound as prepared by dilution with dilution buffer (20 mM HEPES, 137 mM NaCl, 5.27 mM KCl, 0.9 mM MgCl2, 1.26 mM CaCl2, 5.6 mM D-glucose, 2.5 mM probenecid, 0.1% Pluronic F-127, pH 7.5) were dispensed to each well through the built-in automatic dispenser. Five minutes after, 50 nM ATP solution (50 μL) prepared by dilution with the dilution buffer was dispensed through the built-in automatic dispenser, and the measurement of fluorescence intensity was continued for 4 min. For each well, the specific maximum fluorescence intensity was calculated as the ratio of the maximum fluorescence intensity after addition of the ATP solution to the fluorescence intensity at the starting of the measurement. […] FDSS software (Hamamatsu Photonics K.K.) was used for calculation of the specific maximum fluorescence intensity. IC50 was calculated using Microsoft Excel (Microsoft Corporation) and XLfit (idbs Ltd.).

Series [1] can be described thus: Pharmacokinetic test (BA, CLtot). Format: in vivo. The conditions noted are these: rat, plasma, SD rats. As to the method: • (1) Animals: SD rats were used • (2) Breeding conditions: SD rats were allowed to freely take solid food and sterilized tap water. • (3) Dose and grouping: orally or intravenously administered at a predetermined dose; grouping was as follows (Dose depends on the compound)
Oral administration: 1 mg/kg (n=2)
The total body clearance (CLtot) was calculated by dividing the dose by the AUC of the intravenous administration group.

Another series has as its target CYP2C9 (Homo sapiens (Human), UniProt P11712). Kind of series: CYP inhibition test, CYP2C9. The conditions noted are these: pooled human hepatic microsome; tolbutamide methyl-hydroxylation. In kind it is in vitro ADME. As to the method:
(§1) Using commercially available pooled human hepatic microsome, and employing, as markers, 7-ethoxyresorufin-O-deethylation (CYP1A2), tolbutamide methyl-hydroxylation (CYP2C9), mephenytoin 4′-hydroxylation (CYP2C19), dextromethorphan O-demethylation (CYP2D6), and terfenedine hydroxylation as typical substrate metabolism reactions of human main five CYP enzyme forms (CYP1A2, 2C9, 2C19, 2D6, 3A4), an inhibitory degree of each metabolite production amount by a test compound was assessed.
(§2) The reaction conditions were as follows: substrate, 0.5 μmol/L ethoxyresorufin (CYP1A2), 100 μmol/L tolbutamide (CYP2C9), 50 μmol/L S-mephenitoin (CYP2C19), 5 μmol/L dextromethorphan (CYP2D6), 1 μmol/L terfenedine (CYP3A4); reaction time, 15 minutes; reaction temperature, 37° C. enzyme, pooled human hepatic microsome 0.2 mg protein/mL; test, drug concentration, 1.0, 5.0, 10, 20 μmol/L (four points).
(§3) Each five kinds of substrates, human hepatic microsome, or a test drug in 50 mmol/L Hepes buffer as a reaction solution was added to a […] at the composition as described above, NADPH, as a cofactor was added to initiate metabolism reactions as markers and, after the incubation at 37° C. for 15 minutes, a methanol/acetonitrile=1/1 (v/v) solution was added to stop the reaction. After the centrifugation at 3000 rpm for 15 minutes, resorufin (CYP1A2 metabolite) in the supernatant was quantified by a fluorescent multilabel counter and tributamide hydroxide (CYP2CP metabolite), mephenytoin 4′hydroxide (CYP2C19 metabolite), […] (CYP2D6 metabolite), and terfenadine alcohol (CYP3A4 metabolite) were quantified by LC/MS/MS.
(§4) Addition of only DMSO being a solvent dissolving a drug to a reaction system was adopted as a control (100%), remaining activity (%) was calculated at each concentration of a test drug added as the solution and IC50 was calculated by reverse presumption by a logistic model using a concentration and an inhibition rate.

Another series addresses CYP3A4 (Homo sapiens (Human), UniProt P08684). Kind of series: CYP inhibition test, CYP3A4. In kind it is in vitro ADME. The conditions noted are these: pooled human hepatic microsome; terfenedine hydroxylation. As to the method: as §1, §2, §3, §4
The target in a further series is CYP2D6 (Homo sapiens (Human), UniProt P10635). Nature of the series: CYP inhibition test, CYP2D6. In kind it is in vitro ADME. The conditions noted are these: pooled human hepatic microsome; dextromethorphan O-demethylation. As to the method: as §1, §2, §3, §4
Chain of CYP2D6 (P10635 whole entry): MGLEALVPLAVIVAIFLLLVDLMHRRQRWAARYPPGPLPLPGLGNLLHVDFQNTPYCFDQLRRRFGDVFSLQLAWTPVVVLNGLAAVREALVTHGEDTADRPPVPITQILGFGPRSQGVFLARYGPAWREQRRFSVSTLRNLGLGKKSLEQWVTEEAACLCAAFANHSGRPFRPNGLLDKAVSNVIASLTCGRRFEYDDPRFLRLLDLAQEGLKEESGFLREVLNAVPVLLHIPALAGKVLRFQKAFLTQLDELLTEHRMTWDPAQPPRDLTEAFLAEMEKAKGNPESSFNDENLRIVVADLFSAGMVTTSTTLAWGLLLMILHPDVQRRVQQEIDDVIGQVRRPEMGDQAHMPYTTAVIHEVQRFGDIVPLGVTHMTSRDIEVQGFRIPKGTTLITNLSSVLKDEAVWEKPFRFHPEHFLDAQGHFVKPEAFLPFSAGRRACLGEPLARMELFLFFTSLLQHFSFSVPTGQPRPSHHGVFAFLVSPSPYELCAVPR
The next series has as its target CYP1A2 (Homo sapiens (Human), UniProt P05177). Kind of series: CYP inhibition test, CYP1A2. In kind it is in vitro ADME. The conditions noted are these: pooled human hepatic microsome; 7-ethoxyresorufin-O-deethylation. How it is done:
as §1, §2, §3, §4

The target in the next series is CYP2C19 (Homo sapiens (Human), UniProt P33261). Nature of the series: CYP inhibition test, CYP2C19. Format: in vitro ADME. The settings on record: pooled human hepatic microsome; mephenytoin 4′-hydroxylation. How it is done:
as §1, §2, §3, §4

Series [2] in a line: Solubility test (1% DMSO, artificial intestinal juice pH 6.8). In kind it is physicochemical. The settings on record: artificial intestinal juice pH 6.8 with 1% DMSO, 25 °C, fassgf or other biorelevant, kinetic from dmso stock, artificial intestinal juice pH 6.8, 25 degrees Celsius, read-out: Solubulity. How it is done: The solubility of a compound was determined under a condition in which 1% DMSO was added. 10 mmol/L compound solution was prepared using DMSO, and then 2 μL of the compound solution was added to 198 μL of artificial intestinal juice in pH 6.8 (to 250 mL of 0.2 mol/L potassium dihydrogen phosphate reagent solution was added 118 mL of 0.2 mol/L NaOH reagent solution and water to provide a final volume of 1000 mL). After standing at 25 degrees Celsius for 18 hours, the mixed solution was filtrated with suction. The filtrate was diluted twice with methanol/water (1/1), and then a concentration in the filtration was measured with HPLC or LC/MS/MS by the absolute calibration method.

Setting [3] is: intravenous administration 0.5 mg/kg.
The mark [4] stands for this setting: intravenous administration 0.5 mg/kg, read-out: AUC (iv).
Setting [5] is: oral administration 1 mg/kg, read-out: AUC (po).

SMILES strings stand for the structures. Where two headings read alike, the source gives them in different places.

Chain of CYP2C9 (P11712 whole entry): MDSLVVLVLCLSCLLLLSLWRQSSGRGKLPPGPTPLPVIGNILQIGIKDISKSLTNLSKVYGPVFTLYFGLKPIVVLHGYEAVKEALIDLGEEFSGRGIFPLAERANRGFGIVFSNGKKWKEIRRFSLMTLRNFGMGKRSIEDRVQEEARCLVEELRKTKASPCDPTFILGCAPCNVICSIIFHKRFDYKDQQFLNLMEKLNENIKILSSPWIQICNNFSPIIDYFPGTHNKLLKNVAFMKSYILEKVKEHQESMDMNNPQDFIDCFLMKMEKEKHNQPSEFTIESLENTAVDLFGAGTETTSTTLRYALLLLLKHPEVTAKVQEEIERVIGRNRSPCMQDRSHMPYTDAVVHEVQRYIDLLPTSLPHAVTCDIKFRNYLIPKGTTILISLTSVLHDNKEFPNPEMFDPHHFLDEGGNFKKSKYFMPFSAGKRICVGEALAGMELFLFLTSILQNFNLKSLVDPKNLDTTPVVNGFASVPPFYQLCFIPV
Chain of CYP2C19 (P33261 whole entry): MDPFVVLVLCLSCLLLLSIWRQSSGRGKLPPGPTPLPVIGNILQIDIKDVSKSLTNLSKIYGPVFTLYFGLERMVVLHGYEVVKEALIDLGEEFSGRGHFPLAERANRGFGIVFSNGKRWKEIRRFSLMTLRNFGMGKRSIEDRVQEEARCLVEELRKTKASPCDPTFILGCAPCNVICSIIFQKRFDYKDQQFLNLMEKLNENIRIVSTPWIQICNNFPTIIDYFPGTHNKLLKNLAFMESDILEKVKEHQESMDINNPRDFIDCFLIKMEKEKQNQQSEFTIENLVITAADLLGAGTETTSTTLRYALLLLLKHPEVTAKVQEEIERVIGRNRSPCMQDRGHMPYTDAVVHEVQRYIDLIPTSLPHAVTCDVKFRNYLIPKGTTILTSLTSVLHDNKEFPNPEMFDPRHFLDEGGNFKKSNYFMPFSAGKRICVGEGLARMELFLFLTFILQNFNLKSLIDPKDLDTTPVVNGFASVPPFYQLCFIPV
Chain of CYP3A4 (P08684 whole entry): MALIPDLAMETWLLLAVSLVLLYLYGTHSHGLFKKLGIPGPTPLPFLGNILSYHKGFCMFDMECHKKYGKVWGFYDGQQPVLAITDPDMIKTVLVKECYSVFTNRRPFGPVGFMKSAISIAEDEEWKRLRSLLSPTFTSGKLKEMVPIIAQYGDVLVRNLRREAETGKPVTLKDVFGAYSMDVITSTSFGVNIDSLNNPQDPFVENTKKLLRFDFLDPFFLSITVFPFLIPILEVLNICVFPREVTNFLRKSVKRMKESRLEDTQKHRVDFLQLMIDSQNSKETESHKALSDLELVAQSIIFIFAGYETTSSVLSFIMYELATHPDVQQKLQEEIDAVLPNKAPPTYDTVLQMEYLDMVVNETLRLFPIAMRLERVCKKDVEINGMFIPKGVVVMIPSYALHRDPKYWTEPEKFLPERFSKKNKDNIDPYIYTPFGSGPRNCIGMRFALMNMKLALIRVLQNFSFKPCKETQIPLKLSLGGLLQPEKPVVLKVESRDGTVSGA
Chain of CYP1A2 (P05177 whole entry): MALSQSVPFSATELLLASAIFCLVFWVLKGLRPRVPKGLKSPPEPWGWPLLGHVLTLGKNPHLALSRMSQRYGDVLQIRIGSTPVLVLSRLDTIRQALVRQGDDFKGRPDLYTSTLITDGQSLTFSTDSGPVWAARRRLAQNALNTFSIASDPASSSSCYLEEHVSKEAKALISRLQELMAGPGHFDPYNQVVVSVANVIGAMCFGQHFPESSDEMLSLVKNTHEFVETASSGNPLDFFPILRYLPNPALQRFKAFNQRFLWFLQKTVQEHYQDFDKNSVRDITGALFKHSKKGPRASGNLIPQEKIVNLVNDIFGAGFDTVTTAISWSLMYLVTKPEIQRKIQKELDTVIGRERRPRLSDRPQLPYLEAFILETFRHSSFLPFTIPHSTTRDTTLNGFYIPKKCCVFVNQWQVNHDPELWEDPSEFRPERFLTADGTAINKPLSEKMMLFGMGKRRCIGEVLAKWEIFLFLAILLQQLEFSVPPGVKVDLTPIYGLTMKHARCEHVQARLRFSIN
Chain of Rat P2X3 receptor (P49654 whole entry): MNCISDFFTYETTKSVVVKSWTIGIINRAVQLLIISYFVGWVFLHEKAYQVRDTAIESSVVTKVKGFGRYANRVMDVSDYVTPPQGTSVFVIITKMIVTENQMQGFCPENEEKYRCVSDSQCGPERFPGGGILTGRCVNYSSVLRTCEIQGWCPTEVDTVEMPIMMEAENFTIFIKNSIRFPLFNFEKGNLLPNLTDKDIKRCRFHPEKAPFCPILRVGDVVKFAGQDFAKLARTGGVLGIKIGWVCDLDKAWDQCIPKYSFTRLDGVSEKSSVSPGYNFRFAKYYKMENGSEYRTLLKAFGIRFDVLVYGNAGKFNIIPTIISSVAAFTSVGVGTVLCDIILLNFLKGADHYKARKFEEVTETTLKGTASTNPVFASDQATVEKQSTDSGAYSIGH

`C[C@@H](Cn1c(=O)[nH]/c(=N\c2ccc(Oc3ccc(OC(F)F)cn3)cc2)n(Cc2ccc(Cl)cc2)c1=O)C(=O)O` [Compound I-022]: the IC50 (commonly the concentration that inhibits the measured activity by half) at Rat P2X3 receptor amounted to 0.011 µM.
On to `Cc1ccc(Oc2ccc(/N=c3\[nH]c(=O)n(CC(C)(C)C(=O)O)c(=O)n3Cc3ccc(Cl)cc3)cc2)nc1` [Compound I-058], for which the clearance (in general, a measure of how efficiently the substance is removed, as volume per time) in series [1] (setting [3]) was 5.8 mL/min/kg. For the same compound, the values for the AUC in series [1] (setting [4]) and in series [1] (setting [5]) were 1510 ng·h/mL and 2030 ng·h/mL, respectively.
As to `C[C@@H](Cn1c(=O)[nH]/c(=N\c2ccc(Oc3cnc(Cl)cn3)cc2)n(Cc2ccc(Cl)cc2)c1=O)C(=O)O` [Compound R-014], the concentration for half-maximal inhibition (IC50) was above 20 µM at CYP2C9; above 20 µM on CYP3A4; above 20 µM on CYP2D6; 0.006 µM on Rat P2X3 receptor; above 20 µM at CYP1A2; above 20 µM against CYP2C19.
In the case of `Cc1ccc(Cn2c(=O)n(C[C@H](C)C(=O)O)c(=O)[nH]/c2=N\c2ccc(Oc3ccc(C(F)(F)F)cn3)cc2)cc1` [Compound I-038], the solubility at 18 h in series [2] is above 50 µM.
In turn, `C[C@@H](Cn1c(=O)[nH]/c(=N\c2ccc(Oc3cccc(Cl)n3)cc2)n(Cc2ccc(Cl)cc2)c1=O)C(=O)O` [Compound I-014] yielded a clearance in series [1] (setting [3]) of 4 mL/min/kg. Besides, the results for the area under the curve (AUC) in series [1] (setting [4]) and in series [1] (setting [5]) were 2300 ng·h/mL and 4890 ng·h/mL, respectively.
For `Cc1ccc(Cn2c(=O)n([C@@H](C)[C@@H](C)C(=O)O)c(=O)[nH]/c2=N\c2ccc(Oc3cccc(F)n3)cc2)cc1` [Compound I-106], the IC50 at CYP2C9, against CYP3A4, against CYP2D6, on CYP1A2 and on CYP2C19 was above 20 µM each time.
As to `COc1ccnc(Oc2ccc(/N=c3\[nH]c(=O)n(C[C@H](C)C(=O)O)c(=O)n3Cc3ccc(Cl)cc3)cc2)c1` [Compound I-069], the IC50 at CYP2C9, at CYP3A4, against CYP2D6, at CYP1A2 and against CYP2C19 was above 20 µM in each case.
In the case of `Cc1ccc(Cn2c(=O)n(C[C@H](C)C(=O)O)c(=O)[nH]/c2=N\c2ccc(Oc3cccc(C(F)(F)F)n3)cc2)cc1` [Compound I-039], the solubility at 18 h in series [2] was above 50 µM.
For `Cc1ccc(Cn2c(=O)n(CC(C)(C)C(=O)O)c(=O)[nH]/c2=N\c2ccc(Oc3ccc(F)cn3)cc2)cc1` [Compound I-041], the IC50 against CYP2C9, at CYP3A4, at CYP2D6, at CYP1A2 and at CYP2C19 was above 20 µM in each case. In addition, the solubility at 18 h in series [2] was above 50 µM.
As for `C[C@@H](Cn1c(=O)[nH]/c(=N\c2ccc(Oc3cccnn3)c(F)c2)n(Cc2ccc(Cl)cc2)c1=O)C(=O)O` [Compound R-037], the half-inhibitory concentration (IC50) at Rat P2X3 receptor is 0.008 µM.
Take `COc1nccc(Oc2ccc(/N=c3\[nH]c(=O)n([C@@H](C)[C@@H](C)C(=O)O)c(=O)n3Cc3ccc(Cl)cc3)cc2)n1` [Compound R-010]: the IC50 against CYP2C9, against CYP3A4, at CYP2D6, against CYP1A2 and against CYP2C19 was above 20 µM in each case.
`Cc1ccc(Cn2c(=O)n([C@@H](C)[C@@H](C)C(=O)O)c(=O)[nH]/c2=N\c2ccc(Oc3ccc(C)cn3)cc2)cc1` [Compound I-113]: the IC50 on Rat P2X3 receptor was 0.01 µM.
`COc1cc(Oc2ccc(/N=c3\[nH]c(=O)n(C[C@H](C)C(=O)O)c(=O)n3Cc3ccc(Cl)cc3)cc2)cc(F)n1` [Compound R-058]: the IC50 at CYP2C9, against CYP3A4, against CYP2D6, against CYP1A2 and against CYP2C19 was above 20 µM each time.
In the case of `O=C(O)C1(Cn2c(=O)[nH]/c(=N\c3ccc(Oc4cccc(F)n4)cc3)n(Cc3ccc(Cl)cc3)c2=O)CC1` [Compound I-017], the clearance in series [1] (setting [3]) came out at 2.3 mL/min/kg. In addition, the AUC (in general, concentration integrated over time) in series [1] (setting [4]) turned out to be 3790 ng·h/mL; in series [1] (setting [5]), 6110 ng·h/mL.
In series [1] (setting [3]), `C[C@@H](Cn1c(=O)[nH]/c(=N\c2ccc(Oc3ccccn3)cc2)n(Cc2ccc(Cl)cc2)c1=O)C(=O)O` [Compound I-127] came in with a clearance of 3.8 mL/min/kg. For the same compound, the AUC in series [1] (setting [4]) came to 2330 ng·h/mL; in series [1] (setting [5]), 2460 ng·h/mL.
In the case of `CC(C)(Cn1c(=O)[nH]/c(=N\c2ccc(Oc3cnc(Cl)cn3)cc2)n(Cc2ccc(Cl)cc2)c1=O)C(=O)O` [Compound R-027], the half-inhibitory concentration (IC50) on CYP2C9, on CYP3A4, on CYP2D6, on CYP1A2 and at CYP2C19 was above 20 µM throughout.
`Cc1ccc(Cn2c(=O)n(C[C@H](C)C(=O)O)c(=O)[nH]/c2=N\c2ccc(Oc3ccc(Cl)cn3)cc2)cc1` [Compound I-100]: on Rat P2X3 receptor, the IC50 came to 0.009 µM.
